Measured values: patent US20160159814A1, “GLYCINE TRANSPORTER INHIBITOR” (TAISHO PHARMACEUTICAL CO., LTD., priority 2013, published 2016)
pIC50: −log10 of the molar value.

What follows are compounds tested against T1, human type 1 glycine transporter (GlyT1) (Homo sapiens, UniProt P48067) (assay: Glycine uptake inhibition experiment ([3H] glycine uptake in T98G cells expressing GlyT1)). Conditions: not given.
T1 construct: T98G cells (glioma cells) expressing human type 1 glycine transporter (GlyT1) were used; endogenous in cells; host or cells: T98G cells (human glioma cells)
T1 sequence (P48067 1-706): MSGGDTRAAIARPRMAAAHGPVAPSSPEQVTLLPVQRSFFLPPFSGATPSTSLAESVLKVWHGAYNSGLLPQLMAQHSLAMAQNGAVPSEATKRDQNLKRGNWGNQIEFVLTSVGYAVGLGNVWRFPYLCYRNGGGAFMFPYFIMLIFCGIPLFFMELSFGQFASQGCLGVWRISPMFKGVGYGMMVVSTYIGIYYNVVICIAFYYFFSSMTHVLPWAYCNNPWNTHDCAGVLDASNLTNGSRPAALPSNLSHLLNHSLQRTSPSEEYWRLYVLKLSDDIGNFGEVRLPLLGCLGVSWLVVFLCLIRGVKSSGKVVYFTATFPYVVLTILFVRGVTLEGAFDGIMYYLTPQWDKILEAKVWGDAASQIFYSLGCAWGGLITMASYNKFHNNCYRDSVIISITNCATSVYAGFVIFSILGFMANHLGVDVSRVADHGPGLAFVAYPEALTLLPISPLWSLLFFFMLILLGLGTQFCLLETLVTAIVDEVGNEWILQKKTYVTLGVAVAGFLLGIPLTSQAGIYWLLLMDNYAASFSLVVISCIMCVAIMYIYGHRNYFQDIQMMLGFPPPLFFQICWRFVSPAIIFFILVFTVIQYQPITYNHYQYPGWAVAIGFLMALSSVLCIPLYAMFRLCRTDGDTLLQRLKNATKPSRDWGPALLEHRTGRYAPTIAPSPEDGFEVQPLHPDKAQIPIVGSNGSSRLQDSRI
Format: cell-based
Outline: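 T98G glioma cells expressing human GlyT1 were pretreated 10 min with compound in HEPES buffer pH 7.4 (0.2% BSA), then incubated with compound plus 250 nM final [3H]glycine for 15 min at room temperature. Intracellular radioactivity was counted after NaOH lysis; 10 μM ALX5407 defined non-specific uptake. IC50 came from 10^−9–10^−5 M curves.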
Work on C[C@H](O)c1cccc2c1C(F)(F)C(=O)N2Cc1ccncc1F [Compound 163, 3,3-difluoro-1-[(3-fluoropyridin-4-yl)methyl]-4-[(1S)-1-hydroxyethyl]-1,3-dihydro-2H-indol-2-one] yielded a pIC50 of 6.39. Work on COc1cc(CN2C(=O)C(F)(F)c3c([C@H](C)O)cccc32)cnc1F [Compound 240, 3,3-difluoro-1-[(6-fluoro-6-methoxypyridin-3-yl)methyl]-4-[(1S)-1-hydroxyethyl]-1,3-dihydro-2H-indol-2-one] yielded a pIC50 of 7.22. For N#Cc1cncc(CN2C(=O)C(F)(F)c3c(C(O)C(F)F)cccc32)c1 (single isomer, unassigned) [Compound 164, 5-{[4-(2,2-difluoro-1-hydroxyethyl)-3,3-difluoro-2-oxo-2,3-dihydro-1H-indol-1-yl]methyl}pyridine-3-carbonitrile], the pIC50 was 6.34.

Same assay, conditions: glycine uptake inhibition
Work on C[C@H](O)c1cccc2c1C(F)(F)C(=O)N2Cc1cccc(Cl)c1 [Compound 55, 1-(3-chlorobenzyl)-3,3-difluoro-4-[(1S)-1-hydroxyethyl]-1,3-dihydro-2H-indol-2-one] yielded a pIC50 of 8.66. Work on N#Cc1cccc(CN2C(=O)C(F)(F)c3c(C(O)C(F)(F)F)cccc32)n1 (centres unmarked) [Compound 13, 6-{[3,3-difluoro-2-oxo-4-(2,2,2-trifluoro-1-hydroxyethyl)-2,3-dihydro-1H-indol-1-yl]methyl}pyridine-2-carbonitrile] yielded a pIC50 of 7.02. In the case of O=C1N(Cc2cnc3ccccc3c2)c2cccc([C@@H](O)C(F)(F)F)c2C1(F)F [Compound 133, 3,3-difluoro-1-(quinolin-3-ylmethyl)-4-[(1R)-2,2,2-trifluoro-1-hydroxyethyl]-1,3-dihydro-2H-indol-2-one], the pIC50 was 7.21. O=C1N(Cc2cccc(Cl)n2)c2cccc(C(O)C(F)(F)F)c2C1(F)F (single isomer, unassigned) [Compound 9, 1-[(6-chloropyridin-2-yl)methyl]-3,3-difluoro-4-(2,2,2-trifluoro-1-hydroxyethyl)-1,3-dihydro-2H-indol-2-one] gave a pIC50 of 7.77. For C[C@H](O)c1cccc2c1C(F)(F)C(=O)N2Cc1ccc(Cl)nc1 [Compound 102, 1-[(6-chloropyridin-3-yl)methyl]-3,3-difluoro-4-[(1S)-1-hydroxyethyl]-1,3-dihydro-2H-indol-2-one], the pIC50 was 7.04. In the case of C[C@H](O)c1cccc2c1C(F)(F)C(=O)N2Cc1cccc(C(F)(F)F)c1 [Compound 58, 3,3-difluoro-4-[(1S)-1-hydroxyethyl]-1-[3-(trifluoromethyl)benzyl]-1,3-dihydro-2H-indol-2-one], the pIC50 was 8.18. Compound COc1cccc(CN2C(=O)C(F)(F)c3c([C@H](C)O)cccc32)c1 [Compound 59, 3,3-difluoro-4-[(1S)-1-hydroxyethyl]-1-(3-methoxybenzyl)-1,3-dihydro-2H-indol-2-one] has a pIC50 of 7.74. O=C1N(Cc2ccnc(Cl)c2)c2cccc(C(O)C(F)F)c2C1(F)F (single isomer, unassigned) [Compound 36, 1-[(2-chloropyridin-4-yl)methyl]-4-(2,2-difluoro-1-hydroxyethyl)-3,3-difluoro-1,3-dihydro-2H-indol-2-one] showed a pIC50 of 7.89. For C[C@H](O)c1cccc2c1C(F)(F)C(=O)N2Cc1ccc(C(F)(F)F)o1 [Compound 94, 3,3-difluoro-4-[(1S)-1-hydroxyethyl]-1-{[5-(trifluoromethyl)furan-2-yl]methyl}-1,3-dihydro-2H-indol-2-one], the pIC50 was 8.22.

Same assay, conditions: table section whose head prints (μm)
Compound N#Cc1cccnc1CN1C(=O)C(F)(F)c2c(C(O)C(F)F)cccc21 (single isomer, unassigned) [Compound 259, 2-{[4-(2,2-difluoro-1-hydroxyethyl)-3,3-difluoro-2-oxo-2,3-dihydro-1H-indol-1-yl]methyl}pyridine-3-carbonitrile] has a pIC50 of 5.72. C[C@H](O)c1cccc2c1C(F)(F)C(=O)N2Cc1cc(C#N)c(F)cn1 [Compound 262, 2-{(3,3-difluoro-4-[(1S)-1-hydroxyethyl]-2-oxo-2,3-dihydro-1H-indol-1-yl}methyl)-5-fluoropyridine-4-carbonitrile] gave a pIC50 of 7.21.
